# Patent US20210017174A1, “IDENTIFICATION AND USE OF ERK5 INHIBITOR” (Bayer Aktiengesellschaft, priority 2018, published 2021)
# Test system: SN12C-MEF2-luc (clone #37) reporter cell line
# Assay: Luciferase reporter assay in SN12C-MEF2-luc cells (EGF-stimulated, MEF2-responsive luciferase);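 further: serially diluted compounds at 37 °C, EGF with DMSO as maximum signal and EGF with a 10 µM reference inhibitor as minimum (full inhibition)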
# Assay type: cell-based
# Conditions: Homo sapiens, 16 h compound incubation, then EGF 100 ng/ml for 2 h, ONE-Glo luminescence
row,SMILES,IC50
1,"CN1CCN(c2cnc3c(C4CCN(C(=O)c5ccc(OC(F)(F)F)cc5N)CC4)ncnc3c2)CC1 [Example 81, [2-Amino-4-(trifluoromethoxy)phenyl]{4-[7-(4-methylpiperazin-1-yl)pyrido[3,2-d]pyrimidin-4-yl]piperidin-1-yl}methanone]",115 nM
2,"COc1cc2ncnc(C3CCN(C(=O)c4ccc(COC(F)(F)F)cc4)CC3)c2cc1OC [Example 5, [4-(6,7-Dimethoxyquinazolin-4-yl)piperidin-1-yl]{4-[(trifluoromethoxy)methyl]phenyl}methanone]",11300 nM

# Second part, the compound after the results:
row,IC50,SMILES
1,627 nM,"O=C(c1ccc(OC(F)(F)F)cc1)N1CCC(c2ncnc3cc(-c4ccn[nH]4)ccc23)CC1 [Example 53, {4-[7-(1H-Pyrazol-5-yl)quinazolin-4-yl]piperidin-1-yl}[4-(trifluoromethoxy)-phenyl]methanone]"
2,122 nM,"COC1CCN(c2cnc3c(C4CCN(C(=O)c5ccc(OC(F)(F)F)cc5)CC4)ncnc3c2)CC1 [Example 79, {4-[7-(4-Methoxypiperidin-1-yl)pyrido[3,2-d]pyrimidin-4-yl]piperidin-1-yl}[4-(trifluoromethoxy)phenyl]methanone]"
3,669 nM,"COc1ccc2c(C3CCN(C(=O)c4ccc(OC(F)(F)F)cc4NC(C)=O)CC3)ncnc2c1 [Example 67, N-[2-{[4-(7-Methoxyquinazolin-4-yl)piperidin-1-yl]carbonyl}-5-(trifluoro-methoxy)phenyl]acetamide]"
4,1230 nM,"COc1cc2ncnc(C3CCN(C(=O)c4ccc(OC(F)(F)F)c(F)c4)CC3)c2cc1OC [Example 22, [4-(6,7-Dimethoxyquinazolin-4-yl)piperidin-1-yl][3-fluoro-4-(trifluoromethoxy)phenyl]methanone]"
5,694 nM,"O=C(c1ccc(OC(F)(F)F)cc1)N1CCC(c2ncnc3cc(OCC(F)F)ccc23)CC1 [Example 64, {4-[7-(2,2-Difluoroethoxy)quinazolin-4-yl]piperidin-1-yl}[4-(trifluoromethoxy)-phenyl]methanone]"
6,1720 nM,"COc1cc2ncnc(C3CCN(C(=O)c4ccc(SC(F)(F)F)cc4)CC3)c2cc1OC [Example 16, [4-(6,7-Dimethoxyquinazolin-4-yl)piperidin-1-yl]{4-[(trifluoromethyl)sulfanyl]-phenyl}methanone]"

# Molecular target: T1, ERK5 (Homo sapiens, UniProt Q13164)
# T1 construct: host or cells: E. coli
# Assay: TR-FRET-based Erk5 activity inhibition assay (biochemical assay ERK5)
# Conditions: @ 20 μM; read-out: inhibition in biochemical ERK5 assay at a single concentration
# T1 sequence (Q13164 1-398): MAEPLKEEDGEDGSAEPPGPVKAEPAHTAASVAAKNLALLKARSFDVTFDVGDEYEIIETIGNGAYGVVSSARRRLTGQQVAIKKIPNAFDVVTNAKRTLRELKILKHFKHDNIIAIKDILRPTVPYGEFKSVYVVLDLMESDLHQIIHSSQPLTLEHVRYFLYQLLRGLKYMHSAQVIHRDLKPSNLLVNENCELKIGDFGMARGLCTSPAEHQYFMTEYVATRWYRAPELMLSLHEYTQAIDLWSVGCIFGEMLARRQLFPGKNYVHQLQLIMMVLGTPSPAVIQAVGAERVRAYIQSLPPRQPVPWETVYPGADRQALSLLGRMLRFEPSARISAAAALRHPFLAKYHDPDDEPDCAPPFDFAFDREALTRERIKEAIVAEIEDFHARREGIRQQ
row,inhibition at 20 µM,SMILES
1,44.2%,"O=C(O)c1ccc2c(C3CCN(C(=O)c4ccc(OC(F)(F)F)cc4)CC3)ncnc2c1 [Example 32, 4-{1-[4-(Trifluoromethoxy)benzoyl]piperidin-4-yl}quinazoline-7-carboxylic Acid]"
2,16%,"COc1cc2ncnc(C3CCN(C(=O)c4ccccc4OC(F)(F)F)CC3)c2cc1OC [Example 28, [4-(6,7-Dimethoxyquinazolin-4-yl)piperidin-1-yl][2-(trifluoromethoxy)phenyl]-methanone]"

# Same assay, conditions: TR-FRET, 250 μM ATP, 1 μM substrate peptide, 60 min at 22° C.; read-out: IC50 value biochemiocal ERK5 asssay
row,SMILES,IC50
1,"O=C(c1ccc(OC(F)(F)F)cc1)N1CCC(c2ncnc3cc(N4CCCCC4=O)ccc23)CC1 [Example 55, 1-(4-{1-[4-(Trifluoromethoxy)benzoyl]piperidin-4-yl}quinazolin-7-yl)piperidin-2-one]",1300 nM
2,"COc1cc2ncnc(C3CCN(C(=O)c4ccc(COCC(F)(F)F)cc4)CC3)c2cc1OC [Example 21, [4-(6,7-Dimethoxyquinazolin-4-yl)piperidin-1-yl]{4-[(2,2,2-trifluoroethoxy)methyl]phenyl}-methanone]",2660 nM
3,"COc1cc2ncnc(C3CCN(C(=O)c4ccc(COC(F)(F)F)cc4)CC3)c2cc1OC [Example 5, [4-(6,7-Dimethoxyquinazolin-4-yl)piperidin-1-yl]{4-[(trifluoromethoxy)methyl]phenyl}methanone]",1140 nM
4,"COCCOc1ccc(C(=O)N2CCC(c3ncnc4cc(OC)c(OC)cc34)CC2)cc1 [Example 24, [4-(6,7-Dimethoxyquinazolin-4-yl)piperidin-1-yl][4-(2-methoxyethoxy)phenyl]-methanone]",9660 nM
5,"COc1cc2ncnc(C3CCN(C(=O)c4ccc(Cl)cc4)CC3)c2cc1OC [Example 4, 4-[1-(4-Chlorobenzoyl)piperidin-4-yl]-6,7-dimethoxyquinazoline]",770 nM
6,"CCCc1ccc(C(=O)N2CCC(c3ncnc4cc(OC)c(OC)cc34)CC2)cc1 [Example 20, [4-(6,7-Dimethoxyquinazolin-4-yl)piperidin-1-yl](4-propylphenyl)methanone]",281 nM
7,"COc1cc2ncnc(C3CCN(C(=O)c4ccccc4)CC3)c2cc1OC [Example 9, [4-(6,7-Dimethoxyquinazolin-4-yl)piperidin-1-yl](phenyl)methanone]",6170 nM
8,"O=C(c1ccc(OC(F)(F)F)cc1)N1CCC(c2ncnc3ccccc23)CC1 [Example 58, [4-(Quinazolin-4-yl)piperidin-1-yl][4-(trifluoromethoxy)phenyl]methanone]",1680 nM
9,"COc1ccc2c(C3CCN(C(=O)c4ccc(OC(F)(F)F)cc4C)CC3)ncnc2c1 [Example 61, [4-(7-Methoxyquinazolin-4-yl)piperidin-1-yl][2-methyl-4-(trifluoromethoxy)-phenyl]methanone]",504 nM
10,"O=C(c1ccc2c(C3CCN(C(=O)c4ccc(OC(F)(F)F)cc4)CC3)ncnc2c1)N1CCOCC1 [Example 44, Morpholin-4-yl(4-{1-[4-(trifluoromethoxy)benzoyl]piperidin-4-yl}quinazolin-7-yl)methanone]",2240 nM
11,"Nc1ccc2c(C3CCN(C(=O)c4ccc(OC(F)(F)F)cc4)CC3)ncnc2c1 [Example 37, [4-(7-Aminoquinazolin-4-yl)piperidin-1-yl][4-(trifluoromethoxy)phenyl]-methanone]",867 nM
12,"CC(C)COc1ccc2c(C3CCN(C(=O)c4ccc(OC(F)(F)F)cc4)CC3)ncnc2c1 [Example 46, {4-[7-(2-Methylpropoxy)quinazolin-4-yl]piperidin-1-yl}[4-(trifluoromethoxy)-phenyl]methanone]",293 nM
13,"COc1cc2ncnc(C3CCN(C(=O)c4ccc(C(C)C)cc4)CC3)c2cc1OC [Example 18, [4-(6,7-Dimethoxyquinazolin-4-yl)piperidin-1-yl][4-(propan-2-yl)phenyl]-methanone]",358 nM
14,"N#Cc1ccc2c(C3CCN(C(=O)c4ccc(OC(F)(F)F)cc4)CC3)ncnc2c1 [Example 34, 4-{1-[4-(Trifluoromethoxy)benzoyl]piperidin-4-yl}quinazoline-7-carbonitrile]",506 nM
15,"CN(C)C(=O)c1ccc2c(C3CCN(C(=O)c4ccc(OC(F)(F)F)cc4)CC3)ncnc2c1 [Example 42, N,N-Dimethyl-4-{1-[4-(trifluoromethoxy)benzoyl]piperidin-4-yl}quinazoline-7-carboxamide]",980 nM
16,"CC(=O)Nc1ccc2c(C3CCN(C(=O)c4ccc(OC(F)(F)F)cc4)CC3)ncnc2c1 [Example 38, N-(4-{1-[4-(Trifluoromethoxy)benzoyl]piperidin-4-yl}quinazolin-7-yl)acetamide]",1270 nM
17,"O=C(Nc1ccccc1)c1ccc2c(C3CCN(C(=O)c4ccc(OC(F)(F)F)cc4)CC3)ncnc2c1 [Example 45, N-Phenyl-4-{1-[4-(trifluoromethoxy)benzoyl]piperidin-4-yl}quinazoline-7-carboxamide]",3260 nM
18,"O=C(c1ccc2c(C3CCN(C(=O)c4ccc(OC(F)(F)F)cc4)CC3)ncnc2c1)N1CCCC1 [Example 43, Pyrrolidin-1-yl(4-{1-[4-(trifluoromethoxy)benzoyl]piperidin-4-yl}quinazolin-7-yl)methanone]",1590 nM
19,"CS(=O)(=O)Nc1ccc2c(C3CCN(C(=O)c4ccc(OC(F)(F)F)cc4)CC3)ncnc2c1 [Example 39, N-(4-{1-[4-(Trifluoromethoxy)benzoyl]piperidin-4-yl}quinazolin-7-yl)methane-sulfonamide]",351 nM

# The next lines start with the values.
row,IC50,SMILES
1,270 nM,"O=C(c1ccc(OC(F)(F)F)cc1)N1CCC(c2ncnc3cc(OCC4COC4)ccc23)CC1 [Example 48, {4-[7-(Oxetan-3-ylmethoxy)quinazolin-4-yl]piperidin-1-yl}[4-(trifluoromethoxy)-phenyl]methanone]"
2,78.1 nM,"O=C(c1ccc(OC(F)(F)F)cc1)N1CCC(c2ncnc3cc(-c4ccn[nH]4)ccc23)CC1 [Example 53, {4-[7-(1H-Pyrazol-5-yl)quinazolin-4-yl]piperidin-1-yl}[4-(trifluoromethoxy)-phenyl]methanone]"
3,49.9 nM,"COC1CCN(c2cnc3c(C4CCN(C(=O)c5ccc(OC(F)(F)F)cc5)CC4)ncnc3c2)CC1 [Example 79, {4-[7-(4-Methoxypiperidin-1-yl)pyrido[3,2-d]pyrimidin-4-yl]piperidin-1-yl}[4-(trifluoromethoxy)phenyl]methanone]"
4,192 nM,"O=C(c1ccc(OC(F)(F)F)cc1)N1CCC(c2ncnc3cc(O)ccc23)CC1 [Example 36, [4-(7-Hydroxyquinazolin-4-yl)piperidin-1-yl][4-(trifluoromethoxy)phenyl]-methanone]"
5,241 nM,"COc1ccc2c(C3CCN(C(=O)c4ccc(OC(F)(F)F)cc4NC(C)=O)CC3)ncnc2c1 [Example 67, N-[2-{[4-(7-Methoxyquinazolin-4-yl)piperidin-1-yl]carbonyl}-5-(trifluoro-methoxy)phenyl]acetamide]"
6,88.5 nM,"COc1cc2ncnc(C3CCN(C(=O)c4ccc(OC(F)(F)F)c(F)c4)CC3)c2cc1OC [Example 22, [4-(6,7-Dimethoxyquinazolin-4-yl)piperidin-1-yl][3-fluoro-4-(trifluoromethoxy)phenyl]methanone]"
7,89.8 nM,"O=C(c1ccc(OC(F)(F)F)cc1)N1CCC(c2ncnc3cc(OCC(F)F)ccc23)CC1 [Example 64, {4-[7-(2,2-Difluoroethoxy)quinazolin-4-yl]piperidin-1-yl}[4-(trifluoromethoxy)-phenyl]methanone]"
8,165 nM,"COc1cc2ncnc(C3CCN(C(=O)c4ccc(OC(F)F)cc4)CC3)c2cc1OC [Example 19, [4-(Difluoromethoxy)phenyl][4-(6,7-dimethoxyquinazolin-4-yl)piperidin-1-yl]methanone]"
9,159 nM,"COc1cc2ncnc(C3CCN(C(=O)c4ccc(SC(F)(F)F)cc4)CC3)c2cc1OC [Example 16, [4-(6,7-Dimethoxyquinazolin-4-yl)piperidin-1-yl]{4-[(trifluoromethyl)sulfanyl]-phenyl}methanone]"
10,274 nM,"CC(C)(O)COc1ccc2c(C3CCN(C(=O)c4ccc(OC(F)(F)F)cc4)CC3)ncnc2c1 [Example 63, {4-[7-(2-Hydroxy-2-methylpropoxy)quinazolin-4-yl]piperidin-1-yl}[4-(trifluoro-methoxy)phenyl]-methanone]"
11,224 nM,"O=C(c1ccc(OC(F)(F)F)cc1)N1CCC(c2ncnc3cc(Br)ccc23)CC1 [Example 40, [4-(7-Bromoquinazoline-4-yl)piperidin-1-yl][4-(trifluoromethoxy)phenyl]-methanone]"
12,190 nM,"COc1cc2ncnc(C3CCN(C(=O)c4ccc(Br)cc4)CC3)c2cc1OC [Example 12, (4-Bromophenyl)[4-(6,7-dimethoxyquinazolin-4-yl)piperidin-1-yl]methanone]"
13,198 nM,"CN(C)CCOc1ccc2c(C3CCN(C(=O)c4ccc(OC(F)(F)F)cc4)CC3)ncnc2c1 [Example 56, Formic Acid—(4-{7-[2-(dimethylamino)ethoxy]quinazolin-4-yl}piperidin-1-yl)[4-(trifluoromethoxy)phenyl]methanone (1:1)]"
14,274 nM,"COc1ccc2c(C3CCN(C(=O)c4ccc(OC(F)(F)F)c(C)c4)CC3)ncnc2c1 [Example 62, [4-(7-Methoxyquinazolin-4-yl)piperidin-1-yl][3-methyl-4-(trifluoromethoxy)-phenyl]methanone]"
15,253 nM,"NC(=O)c1ccc2c(C3CCN(C(=O)c4ccc(OC(F)(F)F)cc4)CC3)ncnc2c1 [Example 33, 4-{1-[4-(Trifluoromethoxy)benzoyl]piperidin-4-yl}quinazoline-7-carboxamide]"
